# pIC50, pKd: −log10 of the molar value. Active and inactive are the calls of the source. The rule behind the calls is not given here.
# Assays:
# [1] = Half-life in C57BL/6 mouse at 50 mg/kg, ip measured after 4 hrs by HPLC-MS/MS analysis; format: ADME, organism-based; details: in vivo
# [2] = Drug concentration in lung of C57BL/6 mouse implanted with mouse B16-F10 cells at 50 mg/kg, ip measured after 4 hrs by UPLC-MS/MS analysis; format: ADME, organism-based; details: read-out: Ct
# [3] = Drug concentration in tumor of C57BL/6 mouse implanted with mouse B16-F10 cells at 50 mg/kg, ip measured after 4 hrs by UPLC-MS/MS analysis; format: ADME, organism-based, Neoplasm; details: read-out: Ct
# B16-F10 [4] = assay: Antitumor immunity against mouse B16-F10 cells implanted in allogenic BALB/c mouse assessed as increase in CD3+ CD4+ T cells percentage at 50 mg/kg, ip by flow cytometric analysis; format: functional, organism-based
# B16-F10 [5] = assay: Antitumor activity against mouse B16-F10 cells implanted in allogenic BALB/c mouse assessed as decrease in PD-L1 protein level at 50 mg/kg, ip by flow cytometric analysis; format: functional, organism-based
# [6] = Drug concentration in tumor of C57BL/6 mouse implanted with mouse B16-F10 cells at 50 mg/kg, ip measured after 2 hrs by UPLC-MS/MS analysis; format: ADME, organism-based, Neoplasm; details: read-out: Ct
# [7] = Tmax in Sprague-Dawley rat at 1 mg/kg, iv administered as single dose and measured after 48 hrs by HPLC-MS/MS analysis; format: ADME, organism-based; details: in vivo
# [8] = Toxicity in syngeneic C57BL/6 mouse implanted with mouse B16-F10 cells assessed as effect on body weight at 50 mg/kg, ip measured after 12 days; format: organism-based; details: in vivo, 288 h, time 12 day
# [9] = MRT (0 to infinity) in C57BL/6 mouse at 50 mg/kg, ip measured after 4 hrs by HPLC-MS/MS analysis; format: ADME, organism-based; details: in vivo
# [10] = Drug concentration in kidney of C57BL/6 mouse implanted with mouse B16-F10 cells at 50 mg/kg, ip measured after 1 hrs by UPLC-MS/MS analysis; format: ADME, organism-based; details: read-out: Ct
# [11] = biological target: Programmed cell death protein 1/Programmed cell death 1 ligand 1 (Homo sapiens) (UniProt Q15116+Q9NZQ7); assay: Inhibition of GST-tagged PD-1 (unknown origin)/His-tagged PD-L1 (unknown origin) interaction at 100 nM by HTRF binding assay relative to control; format: protein-complex assay
# [12] = biological target: Programmed cell death 1 ligand 1 (Homo sapiens, UniProt Q9NZQ7); assay: Binding affinity to human PD-L1 assessed as dissociation constant by SPR analysis
# Chain of Programmed cell death 1 ligand 1 (Homo sapiens, UniProt Q9NZQ7) (Q9NZQ7 whole entry): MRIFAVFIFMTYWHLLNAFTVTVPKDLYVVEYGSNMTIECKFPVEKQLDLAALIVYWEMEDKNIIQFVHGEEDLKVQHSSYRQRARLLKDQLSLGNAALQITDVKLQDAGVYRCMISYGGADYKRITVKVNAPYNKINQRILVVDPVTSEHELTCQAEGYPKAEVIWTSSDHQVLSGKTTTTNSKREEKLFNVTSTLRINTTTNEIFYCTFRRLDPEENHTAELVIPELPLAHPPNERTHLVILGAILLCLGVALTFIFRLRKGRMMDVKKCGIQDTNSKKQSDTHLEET
# [13] = AUC (0 to infinity) in Sprague-Dawley rat at 1 mg/kg, iv administered as single dose and measured after 48 hrs by HPLC-MS/MS analysis; format: ADME, organism-based; design: dose 1 mg/kg, time 48 hrs, route iv; details: in vivo
# [14] = Drug concentration in plasma of C57BL/6 mouse implanted with mouse B16-F10 cells at 50 mg/kg, ip measured after 4 hrs by UPLC-MS/MS analysis; format: ADME, organism-based
# [15] = biological target: Programmed cell death protein 1/Programmed cell death 1 ligand 1 (Homo sapiens, UniProt Q9NZQ7); assay: Inhibition of GST-tagged PD-1 (unknown origin)/His-tagged PD-L1 (unknown origin) interaction by HTRF binding assay relative to control; format: protein-complex assay
# Chain of Programmed cell death protein 1/Programmed cell death 1 ligand 1 (Q15116 whole entry): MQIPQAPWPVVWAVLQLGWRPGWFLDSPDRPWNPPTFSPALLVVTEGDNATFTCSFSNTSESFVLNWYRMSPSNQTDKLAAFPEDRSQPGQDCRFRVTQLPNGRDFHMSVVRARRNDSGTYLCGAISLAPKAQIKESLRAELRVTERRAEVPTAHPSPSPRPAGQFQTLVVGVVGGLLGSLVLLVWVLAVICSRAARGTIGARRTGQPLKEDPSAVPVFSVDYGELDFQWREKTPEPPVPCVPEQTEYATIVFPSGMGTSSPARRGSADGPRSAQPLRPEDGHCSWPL
# Chain of Programmed cell death protein 1/Programmed cell death 1 ligand 1 (Q9NZQ7 whole entry): as the sequence (Q9NZQ7 whole entry) above
# [16] = Drug concentration in spleen of C57BL/6 mouse implanted with mouse B16-F10 cells at 50 mg/kg, ip measured after 4 hrs by UPLC-MS/MS analysis; format: ADME, organism-based; details: read-out: Ct
# B16-F10 [17] = assay: Antitumor activity against mouse B16-F10 cells implanted in allogenic BALB/c mouse assessed as increase in CXCR3 mRNA level in tumor at 50 mg/kg, ip by qPCR analysis; format: functional, organism-based
# [18] = MRT (0 to t) in Sprague-Dawley rat at 20 mg/kg, po measured after 48 hrs by HPLC-MS/MS analysis; format: ADME, organism-based; details: in vivo
# [19] = MRT (0 to infinity) in Sprague-Dawley rat at 20 mg/kg, po measured after 48 hrs by HPLC-MS/MS analysis; format: ADME, organism-based; details: in vivo
# [20] = MRT (0 to infinity) in Sprague-Dawley rat at 1 mg/kg, iv administered as single dose and measured after 48 hrs by HPLC-MS/MS analysis; format: ADME, organism-based; details: in vivo
# B16-F10 [21] = assay: Antitumor activity against mouse B16-F10 cells implanted in syngeneic C57BL/6 mouse assessed as decrease in tumor weight at 50 mg/kg, ip measured after 12 days relative to control; format: functional; design: scale not given: the % may be the effect or the level left; details: time 12 day
# B16-F10 [22] = assay: Antitumor activity against mouse B16-F10 cells implanted in BALB/c mouse assessed as reduction in tumor weight at 50 mg/kg, ip administered once daily for 14 days relative to control; format: functional; design: scale not given: the % may be the effect or the level left; details: time 14 day
# [23] = Drug concentration in plasma of C57BL/6 mouse implanted with mouse B16-F10 cells at 50 mg/kg, ip measured after 0.5 hrs by UPLC-MS/MS analysis; format: ADME, organism-based
# [24] = Tmax in Sprague-Dawley rat at 20 mg/kg, po measured after 48 hrs by HPLC-MS/MS analysis; format: ADME, organism-based; details: in vivo
# [25] = biological target: Programmed cell death 1 ligand 1 (Mus musculus, UniProt Q9EP73); assay: Binding affinity to mouse PD-L1 assessed as dissociation constant by SPR analysis
# Chain of Programmed cell death 1 ligand 1 (Mus musculus, UniProt Q9EP73) (Q9EP73 whole entry): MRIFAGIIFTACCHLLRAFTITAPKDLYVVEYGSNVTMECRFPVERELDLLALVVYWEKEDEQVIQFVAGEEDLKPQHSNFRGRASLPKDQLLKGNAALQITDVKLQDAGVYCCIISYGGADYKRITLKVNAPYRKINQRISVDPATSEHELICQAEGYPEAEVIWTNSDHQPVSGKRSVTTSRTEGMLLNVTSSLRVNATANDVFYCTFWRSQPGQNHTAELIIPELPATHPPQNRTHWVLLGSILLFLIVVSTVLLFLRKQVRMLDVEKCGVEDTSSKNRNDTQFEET
# B16-F10 [26] = assay: Antitumor activity against mouse B16-F10 cells implanted in syngeneic C57BL/6 mouse assessed as decrease in tumor volume at 50 mg/kg, ip measured after 12 days relative to control; format: functional; design: scale not given: the % may be the effect or the level left; details: time 12 day
# [27] = Initial drug concentration in Sprague-Dawley rat at 1 mg/kg, iv administered as single dose and measured after 48 hrs by HPLC-MS/MS analysis; format: ADME, organism-based; details: in vivo
# [28] = Drug concentration in brain of C57BL/6 mouse implanted with mouse B16-F10 cells at 50 mg/kg, ip measured after 2 hrs by UPLC-MS/MS analysis; format: ADME, organism-based; details: read-out: Ct
# [29] = Drug concentration in liver of C57BL/6 mouse implanted with mouse B16-F10 cells at 50 mg/kg, ip measured after 1 hrs by UPLC-MS/MS analysis; format: ADME, organism-based; details: read-out: Ct
# B16-F10 [30] = assay: Antitumor activity against mouse B16-F10 cells implanted in allogenic BALB/c mouse assessed as increase in CXCL10 mRNA level in tumor at 50 mg/kg, ip by qPCR analysis; format: functional, organism-based
# [31] = Drug concentration in kidney of C57BL/6 mouse implanted with mouse B16-F10 cells at 50 mg/kg, ip measured after 0.5 hrs by UPLC-MS/MS analysis; format: ADME, organism-based; details: read-out: Ct
# [32] = Drug concentration in heart of C57BL/6 mouse implanted with mouse B16-F10 cells at 50 mg/kg, ip measured after 1 hrs by UPLC-MS/MS analysis; format: ADME, organism-based; details: read-out: Ct
# [33] = Clearance in Sprague-Dawley rat at 1 mg/kg, iv administered as single dose and measured after 48 hrs by HPLC-MS/MS analysis; format: ADME, organism-based; details: in vivo
# [34] = Initial drug concentration in C57BL/6 mouse at 50 mg/kg, ip measured after 4 hrs by HPLC-MS/MS analysis; format: ADME, organism-based; details: in vivo
# [35] = Toxicity in allogenic BALB/c mouse implanted with mouse B16-F10 cells assessed as inflammatory cell infiltration in colon at 50 mg/kg, ip by H&E staining based analysis; format: organism-based; details: in vivo
# B16-F10 [36] = assay: Antitumor activity against mouse B16-F10 cells implanted in allogenic BALB/c mouse assessed as decrease in PD-L1 mRNA level at 50 mg/kg, ip by qPCR analysis; format: functional, organism-based
structure (smiles),measurement,setting,value
Cc1c(COc2cc(OCc3cccc(C#N)c3)c(CN3CCCCC3C(=O)NCCNC(=O)CCCC[C@@H]3SC[C@@H]4NC(=O)N[C@@H]43)cc2Cl)cccc1-c1ccccc1 (stereo partly specified),t1/2,[1],14.587 h
same,concentration at 4 h,[2],143 ng/mL
same,concentration at 4 h,[3],94.2 ng/mL
same,Activity,B16-F10 [4],Active
same,Activity,B16-F10 [5],Active
same,concentration at 2 h,[6],404 ng/mL
same,Tmax,[7],4.98 min
same,Activity,[8],Non-Toxic
same,MRT inf,[9],9.84 h
same,concentration at 1 h,[10],219 ng/mL
same,inhibition,[11],104%
same,pKd,[12],7.36
same,AUC,[13],832 ng·h/mL
same,concentration at 4 h,[14],1460 ng/mL
same,pIC50,[15],8.74
same,concentration at 4 h,[16],7570 ng/mL
same,Activity,B16-F10 [17],Active
same,MRT last at 48 h,[18],6.9 h
same,MRT inf,[19],7.1 h
same,MRT inf,[20],19.9 h
same,Activity,B16-F10 [21],39.1%
same,Activity,B16-F10 [22],66.1%
same,concentration at 0.5 h,[23],910 ng/mL
same,Tmax,[24],3.3 h
same,pKd,[25],6.66
same,Activity,B16-F10 [26],52.6%
same,C0 at 48 h,[27],257 ng/mL
same,concentration at 2 h,[28],4.2 ng/mL
same,concentration at 1 h,[29],1980 ng/mL
same,Activity,B16-F10 [30],Active
same,concentration at 0.5 h,[31],134 ng/mL
same,concentration at 1 h,[32],15.9 ng/mL
same,clearance,[33],21.7 mL/min/kg
same,C0,[34],570.948 ng/mL
same,Activity,[35],Non-Toxic
same,Activity,B16-F10 [36],Active
